The values below come from publication PMC9786103, “Potent and Selective Inhibition of CYP1A2 Enzyme by Obtusifolin and Its Chemopreventive Effects” (Pharmaceutics, 2022).

Read-outs that look alike come from different tables or passages of the source. A value given as a limit tells only on which side of the number the result lay.

The term IC50 denotes the concentration that gives 50% inhibition. The Ki is a dissociation constant, usually derived from enzyme kinetics or from competition with a known ligand. Usually inhibition stands for the drop in the measured response relative to a control, in per cent. A higher inhibition goes with strong suppression.

Series [1] concerns the target T1, recombinant CYP1A2 (rCYP1A2) (Homo sapiens, UniProt P05177).
T1 construct: purchased SPMED (Busan, Republic of Korea)
T1 sequence (P05177 1-516): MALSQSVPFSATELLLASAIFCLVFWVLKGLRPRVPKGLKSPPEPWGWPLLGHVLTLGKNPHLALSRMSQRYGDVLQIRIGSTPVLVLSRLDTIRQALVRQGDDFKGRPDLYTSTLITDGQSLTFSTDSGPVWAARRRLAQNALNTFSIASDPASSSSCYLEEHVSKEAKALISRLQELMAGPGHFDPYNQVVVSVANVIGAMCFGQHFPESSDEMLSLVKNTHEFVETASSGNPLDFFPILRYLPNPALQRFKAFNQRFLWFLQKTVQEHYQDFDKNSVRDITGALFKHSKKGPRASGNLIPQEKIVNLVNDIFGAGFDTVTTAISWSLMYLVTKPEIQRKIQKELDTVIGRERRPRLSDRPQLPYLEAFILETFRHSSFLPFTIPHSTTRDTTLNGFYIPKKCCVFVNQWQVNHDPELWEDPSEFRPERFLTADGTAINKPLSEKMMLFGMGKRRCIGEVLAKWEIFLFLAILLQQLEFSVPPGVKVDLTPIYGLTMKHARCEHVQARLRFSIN
Briefly: Inhibition of CYP1A2-mediated POD in recombinant CYP1A2. In kind it is biochemical. Particulars: rCYP1A2 10 pmol/mL. The text has this:
(§1) The other conditions were similar to those used in the P450 inhibition study, as described earlier.
WinNonlin software (Pharsight, Mountain View, CA, USA) was used to calculate IC50 values. Based on Lineweaver–Burk double reciprocal plots, secondary plots of Lineweaver–Burk plots versus obtusifolin concentrations, and visual inspection of Dixon plots, the type of inhibition and apparent kinetic parameters for inhibitory activity (Ki) were estimated.

The target of series [2] is T2, CYP2A6 (Homo sapiens, UniProt P11509).
T2 construct: Mixtures of pooled HLM, P450 substrates, and obtusifolin; tissue XenoTech XTreme 200; host or cells: pooled human liver microsomes
T2 sequence (P11509 1-494): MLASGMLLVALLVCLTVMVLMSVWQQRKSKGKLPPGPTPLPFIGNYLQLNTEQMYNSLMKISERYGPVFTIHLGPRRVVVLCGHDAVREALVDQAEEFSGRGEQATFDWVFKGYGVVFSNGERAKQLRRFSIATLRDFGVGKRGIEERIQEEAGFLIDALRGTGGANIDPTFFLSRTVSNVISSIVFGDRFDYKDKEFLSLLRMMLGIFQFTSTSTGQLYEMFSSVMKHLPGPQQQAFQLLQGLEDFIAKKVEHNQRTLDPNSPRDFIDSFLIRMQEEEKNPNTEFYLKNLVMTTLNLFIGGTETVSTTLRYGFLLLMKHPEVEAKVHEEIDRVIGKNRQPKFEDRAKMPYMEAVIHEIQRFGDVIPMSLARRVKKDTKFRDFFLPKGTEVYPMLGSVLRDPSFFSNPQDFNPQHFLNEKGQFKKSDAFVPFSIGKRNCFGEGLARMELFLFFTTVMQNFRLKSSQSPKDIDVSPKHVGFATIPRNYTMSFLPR
Briefly: Coumarin 7-hydroxylation in human liver microsomes. The format is biochemical. Particulars: HLMs. For orientation: Liver microsomes are vesicles of endoplasmic reticulum, rich in cytochrome P450 enzymes.
Description: (§3) The following P450 isoform-specific substrates were used: coumarin (CYP2A6); bupropion (CYP2B6); amodiaquine (CYP2C8); tolbutamide (CYP2C9); omeprazole (CYP2C19); dextromethorphan (CYP2D6); chlorzoxazone (CYP2E1); and midazolam (CYP3A). […] NGS was introduced to start the reaction, which was followed by an additional incubation (15 min). Following reaction termination, aliquots of the supernatants were analyzed with LC-MS/MS.
(§4) Reverse phase column (Kinetex XB-C18, 100 × 2.10 mm; Phenomenex, Torrance, CA, USA) and triple-quadrupole mass spectrometer (LCMS 8060, Shimadzu, Kyoto, Japan) with an ultra high-performance LC system (Nexera X2, Shimadzu) analyze all the metabolites. […] For each metabolite, quantitation was carried out in selected reaction monitoring (SRM) mode using the following precursor-to-product ion transition: m/z 152 > 110 for acetaminophen (CYP1A2), m/z 214 > 186 for resorufin (CYP1A1 and CYP1A2), m/z 163 > 107 for 7-hydroxycoumarin (CYP2A6), m/z 256 > 238 for 6-hydroxybupropion (CYP2B6), m/z 328 > 283 for N-desethylamodiaquine (CYP2C8), m/z 287 > 89 for 5-hydroxytolbutamide (CYP2C9), m/z 362 > 214 for 4-hydroxyomeprazole (CYP2C9), m/z 258 > 157 for dextrorphan (CYP2D6), m/z 184 > 120 for 6-hydroxychlorzoxazone (CYP2E1), m/z 342 > 203 for 1′-hydroxymidazolam (CYP3A), and m/z 295 > 100 for trimipramine (IS) [23, 24].

Series [3] addresses T3, CYP2C8 (Homo sapiens, UniProt P10632).
T3 construct: Mixtures of pooled HLM, P450 substrates, and obtusifolin; tissue XenoTech XTreme 200; host or cells: pooled human liver microsomes
T3 sequence (P10632 1-490): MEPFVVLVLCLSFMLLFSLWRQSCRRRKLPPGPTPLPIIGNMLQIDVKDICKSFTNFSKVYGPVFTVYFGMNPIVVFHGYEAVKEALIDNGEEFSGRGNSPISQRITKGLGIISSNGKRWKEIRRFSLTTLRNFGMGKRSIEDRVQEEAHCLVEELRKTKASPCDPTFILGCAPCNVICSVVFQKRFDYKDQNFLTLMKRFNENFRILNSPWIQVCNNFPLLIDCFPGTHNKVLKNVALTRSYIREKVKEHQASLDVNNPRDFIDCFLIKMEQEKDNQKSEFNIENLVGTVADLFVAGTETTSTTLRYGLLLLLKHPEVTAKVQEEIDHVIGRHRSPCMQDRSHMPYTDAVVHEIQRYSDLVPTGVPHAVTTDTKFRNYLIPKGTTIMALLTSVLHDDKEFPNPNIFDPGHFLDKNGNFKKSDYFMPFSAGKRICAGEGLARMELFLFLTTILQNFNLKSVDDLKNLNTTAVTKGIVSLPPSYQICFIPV
Kind of series: Amodiaquine N-deethylation in human liver microsomes. The format is biochemical. The note with it: HLMs.
Description: as §3, §4

In series [4] the target is T4, CYP2D6 (Homo sapiens, UniProt P10635).
T4 construct: Mixtures of pooled HLM, P450 substrates, and obtusifolin; tissue XenoTech XTreme 200; host or cells: pooled human liver microsomes
T4 sequence (P10635 whole entry): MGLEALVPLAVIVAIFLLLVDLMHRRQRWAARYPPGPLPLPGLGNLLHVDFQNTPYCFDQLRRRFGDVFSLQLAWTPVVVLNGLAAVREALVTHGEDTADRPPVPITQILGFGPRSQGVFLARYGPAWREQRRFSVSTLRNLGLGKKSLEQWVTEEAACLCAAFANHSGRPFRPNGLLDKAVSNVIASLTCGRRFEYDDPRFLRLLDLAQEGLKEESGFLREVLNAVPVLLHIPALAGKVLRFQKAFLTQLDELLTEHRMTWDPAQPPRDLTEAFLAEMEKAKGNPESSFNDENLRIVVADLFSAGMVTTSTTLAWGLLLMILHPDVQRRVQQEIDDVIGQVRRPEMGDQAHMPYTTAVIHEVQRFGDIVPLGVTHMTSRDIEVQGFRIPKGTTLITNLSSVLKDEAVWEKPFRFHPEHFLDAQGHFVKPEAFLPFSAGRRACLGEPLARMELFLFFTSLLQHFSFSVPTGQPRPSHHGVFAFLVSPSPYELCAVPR
Briefly: Dextromethorphan O-demethylation in human liver microsomes. In kind it is biochemical. Particulars: HLMs.
Description: as §3, §4

Series [5] has as its target T5, CYP2E1 (Homo sapiens, UniProt P05181).
T5 construct: Mixtures of pooled HLM, P450 substrates, and obtusifolin; tissue XenoTech XTreme 200; host or cells: pooled human liver microsomes
Kind of series: biochemical. In kind it is biochemical.
Description: as §3, §4

The target in series [6] is CYP3A (Homo sapiens, UniProt P08684). Kind of series: Midazolam 1'-hydroxylation in human liver microsomes. The format is biochemical. The note with it: pooled human liver microsomes, probe midazolam, HLMs.
Sequence of CYP3A (P08684 2-503): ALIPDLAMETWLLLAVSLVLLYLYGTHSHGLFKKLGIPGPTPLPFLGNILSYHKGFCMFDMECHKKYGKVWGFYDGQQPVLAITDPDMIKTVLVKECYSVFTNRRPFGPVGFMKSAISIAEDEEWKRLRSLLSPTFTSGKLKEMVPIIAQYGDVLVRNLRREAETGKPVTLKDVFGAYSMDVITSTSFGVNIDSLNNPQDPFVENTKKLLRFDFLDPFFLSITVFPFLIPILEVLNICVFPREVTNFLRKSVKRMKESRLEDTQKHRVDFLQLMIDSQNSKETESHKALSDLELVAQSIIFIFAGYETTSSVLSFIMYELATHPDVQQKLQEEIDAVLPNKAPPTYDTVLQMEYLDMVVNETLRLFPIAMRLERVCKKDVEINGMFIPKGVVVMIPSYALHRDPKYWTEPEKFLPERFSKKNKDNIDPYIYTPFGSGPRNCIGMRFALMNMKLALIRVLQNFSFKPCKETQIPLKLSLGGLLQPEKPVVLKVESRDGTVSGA
Description: as §3, §4
Series [7] deals with T6, rCYP1A2 (Homo sapiens, UniProt P05177).
T6 construct: purchased SPMED (Busan, Republic of Korea)
T6 sequence (P05177 1-516): T1 sequence (P05177 1-516)
Briefly: Ethoxyresorufin O-deethylation (EROD) in recombinant CYP1A2. In kind it is biochemical. Particulars: rCYP1A2 10 pmol/mL, 7-ethoxyresorufin 2 µM, 20 min; read-out: IC50, CYP1A2-mediated EROD. As to the method:
(§2) The inhibitory effects of obtusifolin on the CYP1A-mediated ethoxyresorufin O-deethylation (EROD) activity of rCYP1A1 and rCYP1A2 enzymes (10 pmol/mL) were investigated. […] The other conditions, except for the incubation time (20 min), were similar to those used in the P450 inhibition study, as described earlier.

Series [8] concerns the target T6, rCYP1A2. Briefly: Recombinant CYP1A2 inhibition with 9-cis-retinal as substrate. The note with it: substrate 9-cis-retinal. The format is biochemical. The text has this: Table 5 Inhibitory effects (IC50) of obtusifolin against recombinant CYP1A1 and CYP1A2. | column: IC50 (μM)
Series [9] deals with CYP1A1 and CYP1A2. Kind of series: CYP1A1- and CYP1A2-mediated POD and EROD with recombinant enzymes (summary). The format is biochemical. The note with it: human, summary bound. As to the method: as §1, §2
The conditions of series [10]: read-out: Maximum concentration (Cmax) of obtusifolin in rat blood, cited from earlier work.

T5 sequence (P05181 whole entry): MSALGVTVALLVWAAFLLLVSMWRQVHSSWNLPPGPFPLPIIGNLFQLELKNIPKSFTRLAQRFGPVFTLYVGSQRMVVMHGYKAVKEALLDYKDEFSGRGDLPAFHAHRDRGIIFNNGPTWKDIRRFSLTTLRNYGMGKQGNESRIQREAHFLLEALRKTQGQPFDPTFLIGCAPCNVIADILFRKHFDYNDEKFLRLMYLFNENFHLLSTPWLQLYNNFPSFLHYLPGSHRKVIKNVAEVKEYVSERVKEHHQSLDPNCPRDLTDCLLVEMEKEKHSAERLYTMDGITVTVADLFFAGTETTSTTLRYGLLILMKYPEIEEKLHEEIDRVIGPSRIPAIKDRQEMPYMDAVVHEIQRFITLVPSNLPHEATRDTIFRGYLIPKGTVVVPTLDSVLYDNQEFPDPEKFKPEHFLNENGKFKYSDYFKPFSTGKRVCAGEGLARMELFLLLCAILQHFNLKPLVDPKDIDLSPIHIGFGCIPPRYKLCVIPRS

Take `COc1c(O)c(C)cc2c1C(=O)c1c(O)cccc1C2=O` [Obtusifolin, obtusifolin]: the half-maximal inhibitory concentration (IC50) is 370 ± 110 nM in [1] (phenacetin, read-out: IC50, CYP1A2-mediated phenacetin O-deethylation); > 50000 nM in [2]; 31400 nM in [3]; > 50000 nM in [4]; > 50000 nM in series [5]; 570 ± 110 nM in series [7]. Also, the values for the IC50 in [8] and in [9] were 150 ± 30 nM and < 570 nM, respectively. Also, the inhibition constant (Ki) in series [1] (read-out: Ki, CYP1A2-mediated phenacetin O-deethylation) turned out to be 210 ± 53 nM. In addition, in series [5] (human, microsomes), the inhibition at 15 min, 0.5 µM worked out at 30.7%. Further, in series [6], the IC50 at 15 min was > 50000 nM. Moreover, the Cmax was 860 nM in [10] (single oral Semen Cassiae extracts 1.25 g/kg (5.01 mg/g obtusifolin)) and 540 nM in series [10] (single oral obtusifolin 1.3 mg/kg).
